Among the data in patent US20200031820A1, “3-CARBOXYLIC ACID PYRROLES AS NRF2 REGULATORS” (GLSXOSMITHKLINE INTELLECTUAL PROPERTY DEVELOPMENT LIMITED, priority 2016, published 2020) are EC50 values, retold here.

In this assay the test system is NQO1 specific enzyme activity in BEAS-2B cells (marker for NRF2 activation). The experiment in a line: Beas2B NQO1 MTT Assay. It is filed as cell-based. As to conditions: Homo sapiens, NQO1 specific activity induction, 48 hours with compound. An excerpt:
NAD(P)H:quinone oxidoreductase 1 (NQO1), also called DT diaphorase, is a homodimeric FAD-containing enzyme that catalyses obligatory NAD(P)H-dependent two-electron reductions of quinones and protects cells against the toxic and neoplastic effects of free radicals and reactive oxygen species arising from one-electron reductions. The transcription of NQO1 is finely regulated by NRF2, and thus NQO1 activity is a good marker for NRF2 activation. On day one, frozen BEAS-2B cells (ATCC) were thawed in a water bath, counted, and re-suspended at a concentration of 250,000 cells/mL. Fifty microliters of cells were plated in 384 well black clear-bottomed plates. Plates were incubated at 37° C., 5% CO2 overnight. On day two, plates were centrifuged and 50 nL of compound or controls were added to the cells. Plates were then incubated at 37° C., 5% CO2 for 48 hours. On day four, medium was aspirated from the plate and crude cell lysates were made by adding 13 uL of 1× Cell Signaling Technologies lysis buffer with 1 Complete, Mini, EDTA-free Protease Inhibitor Tablet (Roche) for each 10 mL of lysis buffer. After lysis plates were incubated for 20 minutes at room temperature. Two microliters of lysate were removed for use in Cell Titer Glo assay (Promega) and MTT cocktail was prepared (Prochaska et. al. 1998) for measurement of NQO1 activity. Fifty microliters of MTT cocktail was added to each well, plate was centrifuged, and analysed on an Envision plate reader (Perkin Elmer) using Absorbance 570 nm label for 30 minutes. Product formation was measured kinetically and the pEC50 of NQO1 specific activity induction was calculated by plotting the change in absorbance (Delta OD/min) versus the log of compound concentration followed by 3-parameter fitting.
EC50s <1 nM (+++++), EC50s 10 nM-1 nM (++++), EC50s 10-100 nM (+++), EC50s 100 nM-1 μM (++), EC50s 1-10 μM (+), EC50s >10 μM (−), or were not determined (ND).

Regarding `C[C@H]1Cc2ccc(C(F)(F)F)cc2S(=O)(=O)N(Cc2cccc(-n3ccc(C(=O)O)c3[C@@H]3C[C@H]3c3cn(C)nn3)c2)C1` [Example 4, 1-(3-(((S)-4-methyl-1,1-dioxido-8-(trifluoromethyl)-4,5-dihydrobenzo[f][1,2]thiazepin-2(3H)-yl)methyl)phenyl)-2-((1R,2R)-2-(1-methyl-1H-1,2,3-triazol-4-yl)cyclopropyl)-1H-pyrrole-3-carboxylic acid], the 50% effective concentration (EC50) (in general, the concentration at which the effect is half-maximal) lay within 1 to 10 nM. On to `CCC[C@@H]1CCCCN1C(=O)c1cccc(-c2cccc(-n3ccc(C(=O)O)c3[C@@H]3C[C@H]3c3cn(C)nn3)c2)c1F` [Example 16, 1-(2′-fluoro-3′-((R)-2-propylpiperidine-1-carbonyl)-[1,1′-biphenyl]-3-yl)-2-((1R,2R)-2-(1-methyl-1H-1,2,3-triazol-4-yl)cyclopropyl)-1H-pyrrole-3-carboxylic acid], for which the EC50 lay within 1 to 10 nM. Then `C[C@H](Oc1cccc(-c2cccc(-n3ccc(C(=O)O)c3[C@@H]3C[C@H]3c3cn(C)nn3)c2)c1)C1CCCCC1` [Example 18, 1-(3′-((S)-1-cyclohexylethoxy)-[1,1′-biphenyl]-3-yl)-2-((1R,2R)-2-(1-methyl-1H-1,2,3-triazol-4-yl)cyclopropyl)-1H-pyrrole-3-carboxylic acid], with 10 to 100 nM.
